# According to paper PMC11133798, “Vosoritide treatment for children with hypochondroplasia: a phase 2 trial” (eClinicalMedicine, 2024):
# What was measured:
# [1] = system: patients with achondroplasia; details: cited from earlier work
# [2] = system: subjects of trials to date; details: in vivo; cited from earlier work
# Text: We will perform a single arm, open‐ label, Phase I/II study of vosoritide in patients with the selected genetic causes of short stature identified above.
# [3] = system: neutral endopeptidase (NEP); details: conveyed by Pro-Gly addition on the N-terminus; protocol statement, no data shown; cited from earlier work
# Text: Third, Dr. Dauber (the PI) will p ...
# [4] = system: rat chondrosarcoma cells transfected with FGFR3 containing the hypochondroplasia mutation; details: addition of vosoritide; similar to achondroplasia mutation; n=3; ref unpublished BioMarin data; cited from earlier work
# Text: The rationale for using vosoritide in hypochondroplasia is primarily an extension of the positive clinical trial results in patients with achondroplasia, a more severe perturbation of the same gen ...
# [5] = system: children with hypochondroplasia; assay: Phase 2 trial secondary outcomes: bone age, sitting height ratio, arm span minus height; type: in vivo, human
# Protocol: Secondary outcomes included the change in body proportions as measured by sitting height to standing height ratio and arm span minus standing height, as well as the change in bone age to chronological age ratio after 12 months of therapy. Sitting height was measured three times at each visit using a sitting height table. The average of the three values was used. Sitting height to standing height ratio and arm span minus standing height were standardized for age and sex using available reference data and SDS were calculated.[11]^,[12] Bone age X-rays were read by a single reviewer who was blinded to participant ID, age and time point. Exploratory endpoints included pharmacokinetic parameters, pharmacodynamic markers including collagen X biomarker (CXM) levels and urine cGMP production, and changes in quality of life as measured by the QoLISSY scale.[13] CXM levels in serum were measured in duplicate via an ELISA assay at the Shriners Hospitals for Children in Portland, Oregon as previously described.[14] The average of the two values was used for analysis. Urine samples were obtained for cGMP measurement at baseline and 60, 120, and 240 min after vosoritide injections at the Day 1, Month 6 and Month 12 visits. cGMP levels were assayed at ICON Laboratories (Farmingdale, NY) and were normalized to urine creatinine levels at each time point.
# No formal power calculations were done for this proof of principle study. Sample size was determined based on logistical feasibility. Medication adherence was calculated using the number of returned empty vials divided by the number of days of prescribed therapy. Demographics and clinical characteristics were summarized with mean and standard deviation (SD), median and interquartile (IQR) for numerical variables, frequency and proportion for categorical variables. Primary and secondary clinical outcomes were summarized with mean (SD) for the 6-month observation period and the 12-month treatment period. Paired t-tests were carried out to compare the difference between the treatment and observation periods. The corresponding p-value and 95% confidence interval (CI) were reported. Box and whisker plots were used for both primary endpoints (annualized growth velocity and height SDS) and exploratory endpoints (CXM and cGMP) to visualize the trends for the change from baseline to each of the follow-up visits. Safety data (AEs) were summarized as count and percentage of patients as well as the number of total occurrences per each listed AE for the observation period and the treatment period, respectively. As exploratory analyses, the primary endpoints were stratified based on age, baseline growth velocity and baseline height SDS. The summaries of mean (SD) for each visit, mean differences between treatment and observation periods, and the corresponding p-value and 95% CI were all reported. Parent reported quality of life using the QoLISSY scale was also reported with a similar tabular format. Data were analyzed using SAS for Windows version 9.4 (SAS Institute Inc., Cary, NC). A two-sided test with a significance level of 0.05 was used for all hypothesis tests.
# [6] = system: children with achondroplasia; details: cited from earlier work
# Text: Vosoritide is a c-type natriuretic peptide (CNP) analog that upon binding its receptor on chondrocytes inhibits the mitogen-activated protein kinase (MAPK) pathway. This pathway is downstream of FGFR3 and is activated in hypochondroplasia and achondroplasia. […] Based on this study and additional trials, vosoritide has now been approved in numerous countries for use in children ... || The standing height SDS increased by 0.37 SD during the year of treatment or 0.41 SD using hypochondroplasia specific growth charts. This is slightly greater than the 0.27 SD increase seen in the Phase 3 study of children with achondroplasia. In prior studies with children with achondroplasia, the increase in growth velocity and gains in height SDS have persisted over multiple years.[16]^,[17] Participants in the current study with positive responses to therapy have been enrolled in an ongoing extension study to assess if this will be true in hypochondroplasia as well. It is reassuring that th ...
sequence,measurement,setting,value
"PGQEHPNARKYKGANKKGLSKGCFGLKLDRIGSMSGLGC (disulfide) [vosoritide, recombinant 39-amino-acid C-type natriuretic peptide analog expressed in E. coli, cyclic by an intramolecular disulfide bond]",Mean gain in height standard deviation score,"[1]; achondroplasia, 15 µg/kg, after 42 months of intervention, ref 2 (protocol list)",1.03 SD
same,Efficacy of 15 µg/kg/day dose versus 30 µg/kg/day dose,"[1]; annualized growth velocity, Phase II achondroplasia, ref 2 (protocol list)",equally efficacious to the 30 µg/kg/day dose
same,Symptomatic hypotensive episode,[1]; in vivo,a single patient
same,Serious hypersensitivity reactions,[2],no serious hypersensitivity reactions
same,Subjects having some form of injection site reaction,[2],~ 85%
same,Subjects with an event of hypotension in study 111-205,[2],3.3%
same,Subjects with hypotension documented on vital sign measurement,[2],~ 45%
same,Degradation by neutral endopeptidase (NEP),[3],resistance to neutral endopeptidase (NEP) degradation
same,ERK1/2 activation,[4],decrease ERK1/2 activation
same,"Bone age, Month 12","[5]; 15 μg/kg/day SC, mean (SD), Day 1 61.42 (30.40), single blinded reader, SD",71.58 (32.17) months
same,"Bone age, change during treatment period","[5]; Day 1 to Month 12, mean (95% CI), p<0.0001","10.17 (7.03, 13.31) months"
same,"Bone age/chronological age, change during treatment period","[5]; Day 1 to Month 12, mean (95% CI), p=0.67","0.01 (−0.03, 0.05)"
same,"Sitting height ratio unadjusted, change during treatment period","[5]; Day 1 to Month 12, mean (95% CI), observation period −0.001 (−0.003, 0.001)","−0.009 (−0.01, −0.006)"
same,"Arm span minus height unadjusted, change during treatment period","[5]; Day 1 to Month 12, mean (95% CI), observation period −0.66 (−1.72, 0.40)","−0.76 (−1.55, 0.04)"
same,"Bone age/chronological age, Month 12","[5]; mean (SD), Day 1 0.78 (0.14), SD",0.79 (0.15)
same,"Arm span minus height unadjusted, Month 12","[5]; mean (SD), Day 1 −6.26 (2.83), protocol: measurements in centimeters, SD",−7.01 (3.21)
same,"Sitting height ratio unadjusted, Month 12","[5]; sitting height/standing height, mean (SD), Day 1 0.63 (0.02), SD",0.62 (0.02)
same,Adjusted mean difference in annualized growth velocity,"[6]; Phase 3, placebo-controlled, children with achondroplasia, 15 μg/kg/day",1.57 cm/year
same,Increase in standing height SDS,[6]; Phase 3 study of children with achondroplasia,0.27 SD
